In ChEMBL document CHEMBL1127838, “Development of a receptor-interaction model for serotonin 5-HT2 receptor antagonists. Predicting selectivity with respect to dopamine D2 receptors” (J Med Chem, 1994):

Columns and labels:
[1] = molecular target: D(2) dopamine receptor (Rattus norvegicus, UniProt P61169); experiment: Binding affinity at dopamine D2 receptor by [3H]spiperone displacement.
[2] = molecular target: Serotonin 2 (5-HT2) receptor (Rattus norvegicus, UniProt P30994+P08909+P14842); experiment: Binding affinity at serotonin 5-hydroxytryptamine 2 receptor by [3H]ketanserin displacement.; assay type: protein assay

Sequence of D(2) dopamine receptor (P61169 whole entry): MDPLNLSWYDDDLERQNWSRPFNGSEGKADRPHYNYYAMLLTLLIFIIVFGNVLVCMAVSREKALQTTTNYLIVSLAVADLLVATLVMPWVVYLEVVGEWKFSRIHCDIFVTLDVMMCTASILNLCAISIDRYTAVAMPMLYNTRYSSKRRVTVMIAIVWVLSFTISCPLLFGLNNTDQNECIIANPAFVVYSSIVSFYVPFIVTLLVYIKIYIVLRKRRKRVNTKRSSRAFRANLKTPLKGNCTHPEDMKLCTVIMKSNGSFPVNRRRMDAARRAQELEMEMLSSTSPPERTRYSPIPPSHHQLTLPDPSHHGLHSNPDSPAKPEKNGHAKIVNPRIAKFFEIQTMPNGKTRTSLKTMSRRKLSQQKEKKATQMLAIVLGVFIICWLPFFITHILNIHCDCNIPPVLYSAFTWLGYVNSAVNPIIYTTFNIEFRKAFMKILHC

SMILES	IC50 [2] [nM]	IC50 ([1]; read-out: IC50) [nM]	other results
CN1CCC(=C2c3ccccc3C=Cc3ccccc32)CC1 [CYPROHEPTADINE]			IC50 [1]: 140 nM
CN1CCC(=C2c3ccccc3C=Cc3ccc(Br)cc32)CC1			Ki [1]: 4 nM
O=C1NCCN1CCN1CCN([C@@H]2C[C@@H](c3ccc(F)cc3)c3cc(Cl)ccc32)CC1	2.6		
O=C1NCCN1CCN1CC=C(c2cn(-c3ccc(F)cc3)c3ccccc23)CC1	1.7	5.1	
CN1CCC(=C2c3ccccc3C(O)c3ccccc32)CC1 (stereo not drawn)	2.6	1600	
OCCN1CCN([C@@H]2C[C@@H](c3ccc(F)cc3)c3ccc(C(F)(F)F)cc32)CC1 [TEFLUDAZINE]	3.1		
